Results: BindingDB's records for patent US20230365554 (The Broad Institute, 2023)
pIC50: −log10 of the molar value.

Experiments:
[1] = target: T1, Casein kinase I isoform alpha (Homo sapiens, UniProt P48729); assay: CSNK1A1 Assay 2
Experimental: CSNK1A1-inhibitory activity of compounds of the present invention in presence of 1 μM adenosine-tri-phosphate (ATP) was quantified employing the CSNK1A1 assay as described in the following paragraphs. In essence, the enzyme activity is measured by quantification of the adenosine-di-phosphate (ADP), which is generated as a co-product of the enzyme reaction, via the ADP-Glo Kinase Assay kit from the company Promega. This detection system works as follows: In a first step the ATP not consumed in the kinase reaction is quantitatively converted to cAMP employing an adenylate cyclase ( ADP-Glo-reagent ), then the adenylate cyclase is stopped and the ADP generated in the kinase reaction converted to ATP which generates in a luciferase-based reaction a glow-luminescence signal ( Kinase Detection Reagent ). Recombinant fusion protein of N-terminal Glutathion-S-Transferase (GST) and full-length human CSNK1A1, expressed by baculovirus infected insect cells and purified via Glutathion affinity chromatography, was purchased from Life Technologies (product no. PV4174) and used as enzyme. As substrate for the kinase reaction the biotinylated peptide biotin-Ahx-KRRRAL-pS-VASLPGL (C-terminus in amide form) was used which can be purchased e.g. from the company Biosyntan (Berlin-Buch, Germany).For the assay 50 nl of a 100 fold concentrated solution of the test compound in DMSO was pipetted into a white 1536-well microtiter plate (Greiner Bio-One, Frickenhausen, Germany), 2 μL of a solution of CSNK1A1 in aqueous assay buffer [50 mM HEPES pH 7.5, 10% (v/v) glycerol, 10 mM MgCl2, 50 mM NaCl, 1 mM dithiothreitol, 0.01% (w/v) bovine serum albumin, 0.01% (v/v) Triton X-100] were added and the mixture was incubated for 15 min at 22 C. to allow pre-binding of the test compounds to the enzyme before the start of the kinase reaction. […]

[2] = target: Casein kinase I isoform delta (Homo sapiens, UniProt P48730); assay: CSNK1D Assay
Chain of Casein kinase I isoform delta (P48730 whole entry, canonical isoform): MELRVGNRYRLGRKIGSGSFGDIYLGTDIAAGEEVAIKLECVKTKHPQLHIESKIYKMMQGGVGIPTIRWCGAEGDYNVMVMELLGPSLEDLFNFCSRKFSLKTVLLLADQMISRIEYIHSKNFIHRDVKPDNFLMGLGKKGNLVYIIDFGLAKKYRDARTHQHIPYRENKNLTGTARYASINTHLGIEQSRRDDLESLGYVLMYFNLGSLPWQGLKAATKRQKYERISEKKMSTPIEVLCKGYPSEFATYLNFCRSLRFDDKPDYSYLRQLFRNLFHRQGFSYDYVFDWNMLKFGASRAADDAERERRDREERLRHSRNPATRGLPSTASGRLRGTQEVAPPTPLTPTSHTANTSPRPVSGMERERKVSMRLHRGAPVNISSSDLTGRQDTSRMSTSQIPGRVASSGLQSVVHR
Experimental: CSNK1D-inhibitory activity of compounds of the present invention in presence of 1 μM adenosine-tri-phosphate (ATP) was quantified employing the CSNK1D assay as described in the following paragraphs. In essence, the enzyme activity is measured by quantification of the adenosine-di-phosphate (ADP), which is generated as a co-product of the enzyme reaction, via the ADP-Glo Kinase Assay kit from the company Promega. This detection system works as follows: In a first step the ATP not consumed in the kinase reaction is quantitatively converted to cAMP employing an adenylate cyclase ( ADP-Glo-reagent ), then the adenylate cyclase is stopped and the ADP generated in the kinase reaction converted to ATP which generates in a luciferase-based reaction a glow-luminescence signal ( Kinase Detection Reagent ).Recombinant fusion protein of N-terminal Glutathion-S-Transferase (GST) and full-length human CSNK1D, expressed by baculovirus infected insect cells and purified via Glutathion affinity chromatography, was purchased from Life Technologies (product no. PV3665) and used as enzyme. […]

[3] = target: T1, Casein kinase I isoform alpha; assay: CSNK1A1 Assay 1
Experimental: CSNK1A1-inhibitory activity of compounds of the present invention in presence of 1 μM adenosine-tri-phosphate (ATP) was quantified employing the CSNK1A1 assay as described in the following paragraphs. In essence, the enzyme activity is measured by quantification of the adenosine-di-phosphate (ADP), which is generated as a co-product of the enzyme reaction, via the ADP-Glo Kinase Assay kit from the company Promega. This detection system works as follows: In a first step the ATP not consumed in the kinase reaction is quantitatively converted to cAMP employing an adenylate cyclase ( ADP-Glo-reagent ), then the adenylate cyclase is stopped and the ADP generated in the kinase reaction converted to ATP which generates in a luciferase-based reaction a glow-luminescence signal ( Kinase Detection Reagent ).Recombinant fusion protein of N-terminal Glutathion-S-Transferase (GST) and full-length human CSNK1A1, expressed by baculovirus infected insect cells and purified via Glutathion affinity chromatography, was purchased from Life Technologies (product no. PV4174) and used as enzyme. […] Subsequently 2.5 μL of the kinase detection reagent (1.2 fold more concentrated than recommended by the producer) were added, the resulting mixture was incubated at 22° C. for 1 h and then the luminescence measured with a suitable measurement instrument (e.g. Viewlux from Perkin-Elmer). […]

T1 sequence (P48729 whole entry, canonical isoform): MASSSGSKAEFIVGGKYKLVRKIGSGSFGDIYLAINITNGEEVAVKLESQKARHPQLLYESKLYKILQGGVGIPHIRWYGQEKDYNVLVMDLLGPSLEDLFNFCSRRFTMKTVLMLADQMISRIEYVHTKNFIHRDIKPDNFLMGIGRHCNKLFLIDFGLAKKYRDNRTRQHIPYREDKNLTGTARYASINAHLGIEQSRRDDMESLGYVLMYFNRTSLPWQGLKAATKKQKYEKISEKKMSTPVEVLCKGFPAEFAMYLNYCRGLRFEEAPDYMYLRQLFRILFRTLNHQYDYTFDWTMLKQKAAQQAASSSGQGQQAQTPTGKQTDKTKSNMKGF

Row | SMILES | pIC50 [1] | pIC50 [2] | pIC50 [3]
1 | CC1CN(C)C(=O)c2c1[nH]c(-c1ccnc(NC(=O)C(CC(F)F)c3ccc(F)cc3)c1)c2Nc1ccccc1 (mixture of isomers) [US20230365554, Example 10] | 8.27 | 8.04 | 
2 | CC(=O)Nc1cc(-c2[nH]c3c(c2Nc2ccccc2)C(=O)N(C)CC3)ccn1 | 7.96 |  | 
3 | CN1CCc2[nH]c(-c3ccnc(NC(=O)[C@@H]4C[C@H]4F)c3)c(Nc3ccccc3)c2C1=O (relative stereo) [WO 2016/120196, Example 25] |  |  | 7.20
4 | Cc1cn(C)c(=O)c2c(Nc3ccccc3)c(-c3ccnc(NC(=O)Cc4ccc(F)cc4)c3)[nH]c12 [US20230365554, Example 38] | 8.38 | 8.18 | 
